From ChEMBL document CHEMBL1201862, “PubChem BioAssay data set” (2004)
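These data come from cells grown in 96-well plates and exposed to compound for 48 hours at five concentrations. The concentration for 50% growth inhibition is given as GI50.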 Calls of active or inactive are those of the source. No stated cut-off is given here; in the data, active = GI50 up to about 1.1 µM and inactive = higher.

What was measured:
Assay in all cases: NCI-60 cell line screen, 48 h
[1] = tested on: UACC-257
[2] = tested on: NCI-H460
[3] = tested on: NCI/ADR-RES
[4] = tested on: OVCAR-8
[5] = tested on: HL-60
[6] = tested on: NCI-H226
[7] = tested on: BT-549
[8] = tested on: HCC 2998
[9] = tested on: IGROV-1
[10] = tested on: MDA-N
[11] = tested on: CAKI-1
[12] = tested on: COLO 205
[13] = tested on: LOX IMVI
[14] = tested on: MDA-MB-435
[15] = tested on: RXF 393
[16] = tested on: SK-MEL-5
[17] = tested on: EKVX
[18] = tested on: HOP-62
[19] = tested on: DU-145
[20] = tested on: SF-295

Structure (SMILES) | GI50 [1] | GI50 [2] | GI50 [3] | GI50 [4] | GI50 [5] | GI50 [6] | GI50 [7] | GI50 [8] | GI50 [9] | GI50 [10] | GI50 [11] | GI50 [12] | GI50 [13] | GI50 [14] | GI50 [15] | GI50 [16] | GI50 [17] | GI50 [18] | GI50 [19] | GI50 [20]
CC(C)Cc1ccc(C(C)CC2=CCC(CN(C)C)C2=O)cc1 (stereo not given) | 13.5 µM (inactive) | 31.7 µM (inactive) | 16.9 µM (inactive) | 7.41 µM (inactive) | 1.96 µM (inactive) | 16.7 µM (inactive) | 19.5 µM (inactive) | 5.19 µM (inactive) | 9.51 µM (inactive) | 5.75 µM (inactive) | 1.84 µM (inactive) | 2.69 µM (inactive) | 4.97 µM (inactive) | 8.13 µM (inactive) | 5.78 µM (inactive) | 15.3 µM (inactive) | 16.4 µM (inactive) | 21.1 µM (inactive) | 16.6 µM (inactive) | 17.1 µM (inactive)
O=C(CCN1CCCCC1)N1CCc2c([nH]c3ccccc23)C1c1cccnc1 (stereo not given) | 17.5 µM (inactive) | 73.1 µM (inactive) | > 100 µM (inactive) | 69.3 µM (inactive) | 41.2 µM (inactive) | > 91.8 µM (inactive) | > 61.8 µM (inactive) | 28 µM (inactive) | > 92 µM (inactive) | 28.1 µM (inactive) | > 73.6 µM (inactive) | 21.7 µM (inactive) | 40.6 µM (inactive) | 35.5 µM (inactive) | 28.7 µM (inactive) | 21.3 µM (inactive) | 52.7 µM (inactive) | > 82.2 µM (inactive) | > 100 µM (inactive) | 37.5 µM (inactive)
O=C1c2cc([N+](=O)[O-])sc2C(=O)c2ccsc21 | 0.242 µM (active) | 0.306 µM (active) | 0.824 µM (active) | 0.465 µM (active) | < 0.01 µM (active) | 1.36 µM (inactive) | 0.438 µM (active) | 0.52 µM (active) | 0.413 µM (active) | 0.191 µM (active) | 1.24 µM (inactive) | 0.525 µM (active) | 0.0687 µM (active) | 0.177 µM (active) | 0.486 µM (active) | 0.17 µM (active) | 1.08 µM (active) | 0.227 µM (active) | 0.273 µM (active) | 0.354 µM (active)
CCO/C=N/C1=C(C#N)C(c2ccc(Cl)cc2)c2c(-c3ccccc3)nn(-c3ccccc3)c2O1 (stereo not given) | 11.8 µM (inactive) | 7.69 µM (inactive) | 9.86 µM (inactive) | 14 µM (inactive) | 5.66 µM (inactive) | 15.7 µM (inactive) | 14.1 µM (inactive) | 7.16 µM (inactive) | 8.93 µM (inactive) | 14.7 µM (inactive) | 15.7 µM (inactive) | 5.27 µM (inactive) | 9.62 µM (inactive) | 12.4 µM (inactive) | 7.03 µM (inactive) | > 10 µM (inactive) | 13.9 µM (inactive) | 19.1 µM (inactive) | 16 µM (inactive) | 7.43 µM (inactive)
CCCCCC(=O)OC[n+]1ccc(-c2c(COC(=O)NC(C)C)c(COC(=O)NC(C)C)c3n2CCC3)cc1 | > 100 µM (inactive) | 72.3 µM (inactive) | > 100 µM (inactive) | > 100 µM (inactive) | 37.3 µM (inactive) | > 100 µM (inactive) | > 100 µM (inactive) | > 100 µM (inactive) | > 100 µM (inactive) | > 100 µM (inactive) | 49.5 µM (inactive) | > 100 µM (inactive) | > 100 µM (inactive) | > 100 µM (inactive) | > 100 µM (inactive) | > 100 µM (inactive) | > 100 µM (inactive) | > 100 µM (inactive) | > 35.5 µM (inactive) | > 100 µM (inactive)
CC(C)(C)[C@H]1CCC2(OCCO2)[C@](O)(CCCO)C1 | > 100 µM (inactive) | > 100 µM (inactive) | > 100 µM (inactive) | > 100 µM (inactive) | > 100 µM (inactive) | > 100 µM (inactive) | > 100 µM (inactive) | > 100 µM (inactive) | > 100 µM (inactive) | > 100 µM (inactive) | > 100 µM (inactive) | > 100 µM (inactive) | > 100 µM (inactive) | > 100 µM (inactive) | > 100 µM (inactive) | > 100 µM (inactive) | > 100 µM (inactive) | > 100 µM (inactive) | > 100 µM (inactive) | > 100 µM (inactive)
O=[N+]([O-])c1ccc(NN/N=N/c2ccc(-c3nc4ccccc4s3)cc2)c([N+](=O)[O-])c1 | 18.9 µM (inactive) | 22.3 µM (inactive) | 25.1 µM (inactive) | 24.3 µM (inactive) | 16 µM (inactive) | 29.5 µM (inactive) | 23.8 µM (inactive) | 17.8 µM (inactive) | 19.9 µM (inactive) | 19 µM (inactive) | 26.5 µM (inactive) | 16.4 µM (inactive) | 17.3 µM (inactive) | 24.1 µM (inactive) | 18.7 µM (inactive) | 15.3 µM (inactive) | 15 µM (inactive) | 21.9 µM (inactive) | 30.7 µM (inactive) | 19.5 µM (inactive)
